Experimental data from publication PMC9211397, “High-Throughput Screening Platform To Identify Inhibitors of Protein Synthesis with Potential for the Treatment of Malaria” (Antimicrobial Agents and Chemotherapy, 2022).
Where “and” joins values, the source holds several entries; their conditions need not be identical. Identical values can stand only once. Like-named read-outs stand apart in the source and are kept apart here.

Tests used:
[1] = test system: P. falciparum translation (P. falciparum lysate); assay: P. falciparum in vitro translation (PfIVT) assay, lysate-based, luciferase reporter; format: biochemical, Plasmodium falciparum; conditions: for PfIVT inhibition at 30 μM (%): single-point screen; for IC50: 8-point, weighted mean ± SD of two technical replicates, read-out: IC50 value (μM) PfIVT
Text: (§1) Our P. falciparum in vitro translation (PfIVT) assay is built upon previously established assays ([14], [17]) and is summarized in Fig. 1A. In this assay, successful reconstitution of Plasmodium protein translation is reported via synthesis of a luciferase reporter. For PfIVT, two independent untranslated regions (UTRs), previously shown to promote strong levels of translation ([17]), were introduced upstream and downstream of the luciferase. The 5′ UTR from P. falciparum histidine-rich protein 3 (PfHrp3) ([18]) was introduced upstream of the reporter gene, and the 3′ UTR from P. falciparum histidine-rich protein 2 (PfHrp2) gene ([19]) was introduced downstream. For the reporter construct to support our complementary human IVT assay (HsIVT), the 5′ UTR was replaced with an internal ribosome entry site (IRES) from encephalomyocarditis virus (EMCV) ([20]) and the 3′ UTR was replaced with a poly(A) tail ([21]). […] Finally, a 30-bp poly(A) tail, present within the vector and downstream of the luciferase gene, was inserted to enhance mRNA stability ([21]).
(§2) Translationally active P. falciparum or human embryonic kidney (HEK) 293F lysates were supplemented with accessory, helper, amino acid, and energy regeneration solutions (see Materials and Methods for details). In vitro translation reactions were initiated by the addition of purified mRNA to each reaction well. Using this basic assay format, a number of parameters were assessed and optimized, namely, assay temperature, time, mRNA concentration, and reaction volume (summarized in Fig. S2 in the supplemental material). In addition, we compared the luminescence signal of the CBG firefly luciferase with CBG99, derived from the click beetle […] ([18]).
3D7 parasites were synchronized following two rounds of treatment with D-sorbitol (5%), as previously described ([40]). The hematocrit was reduced from 5% (for standard culture) to 1.5 to 2% and cultures were transferred into HYPERflasks (Corning). Fresh medium was added once or twice daily. […] Harvested red blood cells (infected) were lysed by incubation in 0.1% (wt/vol) saponin on ice for 10 min with gentle agitation. Free parasites were harvested by centrifugation (2,800 × g, 10 min, 4°C) and washed 3 times in wash buffer (WB; 100 mM potassium acetate, 2.5 mM magnesium acetate, 45 mM HEPES [pH 7.4], 250 mM sucrose, 2 mM dithiothreitol, and 15 μM leupeptin) to remove lysed red blood cell debris. The resulting pellet was resuspended in 1 volume of WB supplemented with cOmplete EDTA-free protease inhibitor cocktail (Roche; 1 tablet/20 mL) and human RNase A inhibitor (Sigma; 5 U/mL). Parasite lysis was achieved by nitrogen cavitation using a prechilled 45-mL Parr cell disruption vessel (1,500 lb/in^2, 60 min, 4°C). To clarify the lysate, it was centrifuged (10,000 × g, 15 min, 4°C), and the supernatant was collected, transferred into fresh tubes, and centrifuged (30,000 × g, 15 min, 4°C). As a quality assurance step for each lysate, the RNA content of the resulting supernatant was determined using a NanoDrop spectrophotometer (Shimadzu). Supernatants with RNA levels of >250 ng/μL were aliquoted (100 μL), flash frozen in liquid nitrogen, and stored at −80°C.

[2] = target: CBG99 luciferase (Pyrophorus plagiophthalamus, UniProt Q7M4K1); assay: Luciferase counterscreen (false-positive counterscreen); format: biochemical, click beetle
CBG99 luciferase, sequence (Q7M4K1 entry or part of it): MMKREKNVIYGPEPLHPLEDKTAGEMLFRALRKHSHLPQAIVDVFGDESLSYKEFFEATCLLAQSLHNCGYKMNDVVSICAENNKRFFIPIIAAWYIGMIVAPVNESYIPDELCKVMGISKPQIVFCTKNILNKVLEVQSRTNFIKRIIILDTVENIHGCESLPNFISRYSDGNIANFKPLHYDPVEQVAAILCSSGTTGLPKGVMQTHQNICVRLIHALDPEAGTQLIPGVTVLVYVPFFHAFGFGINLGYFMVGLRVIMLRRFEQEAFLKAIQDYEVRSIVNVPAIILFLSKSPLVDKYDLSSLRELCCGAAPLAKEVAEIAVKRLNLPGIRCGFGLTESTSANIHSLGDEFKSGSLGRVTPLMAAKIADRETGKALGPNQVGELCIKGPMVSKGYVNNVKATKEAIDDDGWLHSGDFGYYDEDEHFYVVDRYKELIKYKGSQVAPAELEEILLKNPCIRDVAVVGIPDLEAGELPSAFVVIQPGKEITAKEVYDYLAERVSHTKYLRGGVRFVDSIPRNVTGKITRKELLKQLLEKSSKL
Method: Hits identified in our primary assay screen were assessed for their potential to interfere with the cbg99 luciferase reporter. For this counterscreen, the master mix containing all the components required for translation (as described above) was incubated for 210 min at 32°C, resulting in the in vitro translation of cbg99 luciferase. The produced luciferase was then incubated with test compounds for 5 min prior to the addition of luciferase reaction buffer. […] Hits from the primary screen were assessed as luciferase inhibitors in 8-point dose-dependent assays ranging from 30 μM to 13.7 nM (1:3 dilutions). Levels of luciferase inhibition were determined relative to the positive control.

[3] = target: human translation (HEK 293F lysate); assay: Human in vitro translation (HsIVT) assay, HEK 293F lysate, luciferase reporter; format: biochemical; conditions: weighted mean ± SD of two technical replicates, read-out: IC50 value (μM) HsIVT
Text: as §1, §2
FreeStyle human embryonic kidney (HEK) 293F cells (Thermo Fisher Scientific) were grown in 500-mL polycarbonate Erlenmeyer vented flasks (Corning) containing FreeStyle 293 expression medium (Life Technologies) upon reaching a density of approximately 2 × 10^6. Cells were then centrifuged at 1,000 × g for 10 min at 4°C, the medium was discarded, and the resulting pellet was washed once in buffer II containing 20 U of human placental RNase inhibitor (Sigma-Aldrich) and cOmplete EDTA-free inhibitor cocktail (Roche) before being centrifuged at 2,800 × g for 10 min. Clarified HEK cell lysate was obtained in the same way as described for P. falciparum lysate.
PfIVT and HsIVT reactions (5 μL final volume) were performed in 384-well plates (Corning) containing 50% lysate from cells (either P. falciparum or HEK 293F), 10% amino acid solution (final concentration of 400 μM for each amino acid in 60 mM KOH; biotechrabbit), 10% energy recovery solution (final assay concentrations of 40 mM HEPES [pH 7.4], 1.5 mM ATP, 0.15 mM GTP, […] creatine phosphate, and 40 U/mL creatine phosphokinase), 10% helper solution (final assay concentrations of 200 μM cystine, 2% polyethylene glycol 3000 [PEG 3000], 1 mM spermidine, 0.5 mM folinic acid, and 15 μM leupeptin), 10% supplemental salt solution (22.5 mM HEPES [pH 7.4], 50 mM potassium acetate, 1 mM magnesium acetate, 1 mM DTT, 1 U/mL human placental RNase inhibitor, 0.1 mM leupeptin), and 10% cbg99 luciferase mRNA (3,000 ng/mL). A master mix solution containing all components was prepared on ice prior to assays, and 5 μL was dispensed into wells using an automated Integra VIAFLO 16-channel 12.5-μL pipette.

[4] = Pathogen Box hits; weighted mean ± SD of two technical replicates; read-out: IC50 value (μM) Counterscreen
[5] = Pandemic Box hits; weighted mean ± SD of two technical replicates; read-out: IC50 value (μM) Counterscreen

Structure (SMILES) | activity against PfIVT at 100 μM ([1]; 100 μM) | IC50 [2, 4] [µM] | IC50 ([3]; Pathogen Box hits) [µM] | PfIVT inhibition at 30 μM (%) ([1]; Pathogen Box) | IC50 ([2]; read-out: IC50 value (μM) Counterscreen; Pandemic Box hits; weighted mean ± SD of two technical replicates) [µM] | IC50 ([2]; read-out: IC50 value (μM) Counterscreen; Pathogen Box hits; weighted mean ± SD of two technical replicates) [µM] | IC50 ([3]; Pandemic Box hits) [µM] | IC50 ([1]; Pandemic Box hits) | IC50 ([1]; Pathogen Box hits) [µM] | PfIVT inhibition at 30 μM (%) ([1]; Pandemic Box) | IC50 [2, 5] [µM]
C[C@H]1c2cccc(O)c2C(=O)C2=C(O)[C@]3(O)C(=O)C(C(N)=O)=C(O)[C@@H](N(C)C)[C@@H]3[C@@H](O)[C@@H]21 [doxycycline, reference compound] | not active |  |  |  |  |  |  |  |  |  | 
COc1ccc2nc(C)cc(OCC(=O)Nc3ccccc3OC)c2c1 [MMV687188] |  | > 30 | > 30 | 64.9 |  |  |  |  |  |  | 
CC(=O)Oc1ccccc1C(=O)Nc1ncc([N+](=O)[O-])s1 [MMV688991, nitazoxanide, reference compound] |  |  | 0.04 ± 0.0003 | 97.0 | 0.04 ± 0.008 | 0.02 ± 0.008 | 0.04 ± 0.0003 | 0.02 ± 0.007 µM | 0.02 ± 0.008 | 98.3 | 
Cc1oncc1C(=O)Nc1ccc(C(F)(F)F)cc1 [MMV003291] |  |  |  |  |  |  | > 30 | 2 ± 0.07 µM |  | 52.9 | 0.5 ± 0.08
O=C(Nc1nnc(-c2ccccc2)o1)c1ccc(F)cc1 [MMV1578578] |  |  |  |  |  |  | 10 ± 0.12 | 3.7 ± 0.07 µM |  | 74.6 | 1.3 ± 0.08
NC(=O)c1cc(Br)ccc1OCCOc1ccccc1 [MMV687243] |  | 0.9 ± 0.09 | 13 ± 0.2 | 82.5 |  |  |  |  | 2.2 ± 0.08 |  | 
CC(C)Nc1ncnc2c1cnn2-c1ccc(Cl)cc1 [MMV108465] |  |  |  |  |  |  | 23 ± 0.11 | 17 ± 0.8 µM |  | 62.6 | 7.6 ± 0.5
COc1ccc(C(=N)N)cc1-c1cn(-c2ccc(C(=N)N)cc2)nn1 [MMV675998] |  | > 30 | 18 ± 0.13 | 68.9 |  |  |  |  | 13 ± 0.9 |  | 
NC[C@H]1O[C@H](O[C@H]2[C@H](O)[C@@H](O[C@H]3O[C@H](CO)[C@@H](O)[C@H](N)[C@H]3O)[C@H](N)C[C@@H]2N)[C@H](N)C[C@@H]1O [MMV002459] |  |  |  |  |  |  | 22 ± 0.3 | 29 µM and > 30 µM |  | 87.3 | > 30
CCCCOC(=O)Nc1cc2[nH]c(C3CCCCC3)nc2cc1N1CCCC1 [MMV687730] |  | > 30 | > 30 | 72.4 |  |  |  |  | 3.9 ± 0.8 |  | 
C(=C\c1nc2ccccc2[nH]1)/c1ccc2c(c1)OCO2 [MMV1582495] |  |  |  |  |  |  | 3.1 ± 0.04 | 0.6 ± 0.07 µM |  | 89.9 | 1.7 ± 0.08
CCOc1ccc(C(=O)NCCc2ccccc2)cc1 [MMV124656] |  |  |  |  |  |  | 17 ± 0.16 | 14 ± 0.9 µM |  | 72.6 | 3.8 ± 0.08
